From ChEMBL document CHEMBL1201862, “PubChem BioAssay data set” (2004)
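Cultured in 96-well plates, cells were exposed to test compound for 48 hours across five concentrations. Here, GI50 denotes the concentration required for 50% inhibition of growth.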 Calls of active or inactive are those of the source. Rule as the data show it: active = GI50 up to about 1.1 µM and inactive = higher.

How the values were obtained:
Assay in all cases: DTP human tumour cell line panel, 48 h
[1] = system: T47D
[2] = system: MOLT-4
[3] = system: UACC-62
[4] = system: SK-MEL-28
[5] = system: MDA-MB-231
[6] = system: IGROV-1
[7] = system: HCT-116
[8] = system: KM12
[9] = system: SK-OV-3
[10] = system: SF-295
[11] = system: HL-60
[12] = system: NCI-H23
[13] = system: M14
[14] = system: DU-145
[15] = system: SR
[16] = system: HT-29
[17] = system: NCI/ADR-RES
[18] = system: SNB-19
[19] = system: NCI-H226
[20] = system: SNB-75
[21] = system: NCI-H460
[22] = system: HOP-62
[23] = system: HCT-15
[24] = system: COLO 205
[25] = system: RXF 393
[26] = system: SK-MEL-2
[27] = system: SK-MEL-5
[28] = system: Hs-578T
[29] = system: SN12C
[30] = system: MDA-MB-435
[31] = system: OVCAR-4
[32] = system: NCI-H522
[33] = system: K562
[34] = system: U-251
[35] = system: UO-31
[36] = system: BT-549
[37] = system: Malme-3M
[38] = system: MDA-N
[39] = system: OVCAR-3
[40] = system: RPMI-8226
[41] = system: CCRF-CEM
[42] = system: PC-3
[43] = system: HOP-92
[44] = system: MCF7
[45] = system: OVCAR-5
[46] = system: CAKI-1
[47] = system: A498
[48] = system: OVCAR-8
[49] = system: EKVX
[50] = system: A549
[51] = system: SF-539
[52] = system: SW-620
[53] = system: 786-0
[54] = system: ACHN
[55] = system: UACC-257
[56] = system: TK-10
[57] = system: SF-268
[58] = system: LOX IMVI

SMILES: CO/C(=N/N1CC1C(F)(F)F)c1ccncc1 (stereo not given)
- GI50 [1]: > 100 µM (inactive)
- GI50 [2]: 30.8 µM (inactive)
- GI50 [3]: > 100 µM (inactive)
- GI50 [4]: > 100 µM (inactive)
- GI50 [5]: > 100 µM (inactive)
- GI50 [6]: > 100 µM (inactive)
- GI50 [7]: > 100 µM (inactive)
- GI50 [8]: > 100 µM (inactive)
- GI50 [9]: 54.7 µM (inactive)
- GI50 [10]: > 100 µM (inactive)
- GI50 [11]: > 100 µM (inactive)
- GI50 [12]: > 100 µM (inactive)
- GI50 [13]: > 100 µM (inactive)
- GI50 [14]: > 100 µM (inactive)
- GI50 [15]: > 100 µM (inactive)
- GI50 [16]: > 100 µM (inactive)
- GI50 [17]: > 100 µM (inactive)
- GI50 [18]: > 100 µM (inactive)
- GI50 [19]: > 100 µM (inactive)
- GI50 [20]: > 100 µM (inactive)
- GI50 [21]: > 100 µM (inactive)
- GI50 [22]: > 100 µM (inactive)
- GI50 [23]: > 100 µM
- GI50 [24]: > 100 µM (inactive)
- GI50 [25]: 45.1 µM (inactive)
- GI50 [26]: > 100 µM (inactive)
- GI50 [27]: > 100 µM (inactive)
- GI50 [28]: > 100 µM (inactive)
- GI50 [29]: > 100 µM (inactive)
- GI50 [30]: > 100 µM (inactive)
- GI50 [31]: > 100 µM (inactive)
- GI50 [32]: > 100 µM (inactive)
- GI50 [33]: > 100 µM (inactive)
- GI50 [34]: > 100 µM (inactive)
- GI50 [35]: 46.8 µM (inactive)
- GI50 [36]: 43.3 µM (inactive)
- GI50 [37]: > 100 µM (inactive)
- GI50 [38]: > 100 µM (inactive)
- GI50 [39]: > 100 µM (inactive)
- GI50 [40]: > 100 µM (inactive)
- GI50 [41]: 88.1 µM (inactive)
- GI50 [42]: > 10 µM (inactive)
- GI50 [43]: > 100 µM (inactive)
- GI50 [44]: > 100 µM (inactive)
- GI50 [45]: > 100 µM (inactive)
- GI50 [46]: > 100 µM (inactive)
- GI50 [47]: > 100 µM (inactive)
- GI50 [48]: > 100 µM (inactive)

SMILES: O=C(O)c1nc2nc(Cl)c(Cl)nc2[nH]1
- GI50 [1]: > 100 µM (inactive)
- GI50 [2]: > 100 µM (inactive)
- GI50 [3]: > 100 µM (inactive)
- GI50 [4]: > 100 µM (inactive)
- GI50 [5]: > 100 µM (inactive)
- GI50 [6]: > 100 µM (inactive)
- GI50 [7]: > 100 µM (inactive)
- GI50 [49]: > 100 µM (inactive)
- GI50 [8]: > 100 µM (inactive)
- GI50 [50]: > 100 µM (inactive)
- GI50 [9]: > 100 µM (inactive)
- GI50 [10]: > 100 µM (inactive)
- GI50 [51]: > 100 µM (inactive)
- GI50 [11]: > 100 µM (inactive)
- GI50 [12]: > 100 µM (inactive)
- GI50 [52]: > 100 µM (inactive)
- GI50 [53]: > 100 µM (inactive)
- GI50 [13]: > 100 µM (inactive)
- GI50 [14]: > 100 µM (inactive)
- GI50 [15]: > 100 µM (inactive)
- GI50 [16]: > 100 µM (inactive)
- GI50 [17]: > 100 µM (inactive)
- GI50 [18]: > 100 µM (inactive)
- GI50 [19]: > 100 µM (inactive)
- GI50 [20]: > 100 µM (inactive)
- GI50 [21]: > 100 µM (inactive)
- GI50 [22]: > 100 µM (inactive)
- GI50 [23]: > 100 µM
- GI50 [24]: > 100 µM (inactive)
- GI50 [25]: > 100 µM (inactive)
- GI50 [26]: > 100 µM (inactive)
- GI50 [27]: > 100 µM (inactive)
- GI50 [28]: > 100 µM (inactive)
- GI50 [29]: > 100 µM (inactive)
- GI50 [30]: > 100 µM (inactive)
- GI50 [31]: > 100 µM (inactive)
- GI50 [32]: > 100 µM (inactive)
- GI50 [54]: > 100 µM (inactive)
- GI50 [33]: > 100 µM (inactive)
- GI50 [55]: > 100 µM (inactive)
- GI50 [34]: > 100 µM (inactive)
- GI50 [36]: > 100 µM (inactive)
- GI50 [37]: > 100 µM (inactive)
- GI50 [38]: > 100 µM (inactive)
- GI50 [56]: > 100 µM (inactive)
- GI50 [57]: > 100 µM (inactive)
- GI50 [39]: > 100 µM (inactive)
- GI50 [40]: > 100 µM (inactive)
- GI50 [41]: > 100 µM (inactive)
- GI50 [42]: > 100 µM (inactive)
- GI50 [43]: > 100 µM (inactive)
- GI50 [58]: > 100 µM (inactive)
- GI50 [44]: > 100 µM (inactive)
- GI50 [45]: > 100 µM (inactive)
- GI50 [46]: > 100 µM (inactive)
- GI50 [47]: > 100 µM (inactive)
- GI50 [48]: > 100 µM (inactive)
